Laboratory results published in PMC5711939, “The rumen microbiome: an underexplored resource for novel antimicrobial discovery” (NPJ Biofilms and Microbiomes, 2017).
Where two headings read alike, the source gives them in different places. Ends that are not written are not given here.

How the values were obtained:
[1] = Peptide-lipid interaction, lipid monolayer (Langmuir balance); type: binding, Staphylococcus aureus; conditions: initial surface pressure 30 ± 0.5 mN/m; compared to Lynronne-2
Protocol: Membrane permeabilsation was evaluated using propidium iodide assay as previously explained,[43] with CTAB as positive control. Peptide–lipid interaction was measured using reconstituted lipid monolayer.[44] Total lipid extract from overnight liquid cultures of MRSA USA300 was obtained by Folch extraction, resuspended in chloroform and stored at −20 °C under nitrogen conditions. Pure bacterial and eukaryotic lipids, POPG, cardiolipin, LTA, POPE and POPC (Avanti Polar Lipid USA) were reconstituted in chloroform at 1 mg/ml and stored at −20 °C under nitrogen. […] The variation of the surface pressure caused by peptide injection was then continuously monitored using a fully automated microtensiometer (µTROUGH SX, Kibron Inc., Helsinki, Finland) until reaching equilibrium (maximal surface pressure increase usually obtained after 15–25 min). Critical pressure of insertion of each peptide in the different lipids was also determined by changing the initial pressure of lipid monolayer (from 10 and 30 mN/m) and measuring the variation of pressure caused by the injection of peptide (at 1 µg/ml final concentration). All experiments were carried out in a controlled atmosphere at 20 °C ± 1 °C and data were analyzed using the Filmware 2.5 program (Kibron Inc., Helsinki, Finland). […]

K. pneumoniae = test: microbe, parasite or virus in culture; conditions: cation adjusted MHB, 18–24 h
Protocol: (§1) Peptides dissolved in sterile distilled water and comparator antibiotics dissolved in the appropriate solvents[38] were added to sterile U-bottom polypropylene 96-well microplates at desired concentrations.

A. baumanii = test: microbe, parasite or virus in culture
Protocol: as §1

in vitro = conditions: 25% serum
Protocol: The stability of Lynronne-1, Lynronne-2 and Lynronne-3 in the presence of serum was investigated by monitoring the concentrations of the remaining soluble peptides by reverse phase high-performance liquid chromatography (RP-HPLC), as described previously by Nguyen and colleagues.[26] Degradation of Lynronne-1, Lynronne-2 and Lynronne-3 in the presence of trypsin was adapted from a previously described method.[46] Briefly, trypsin (5 µl of 0.5 ng/ml) and 37.5 µl trypsin activation buffer (50 mM Tris, 2 mM CaCl2, pH 7.8-8) was added to 7.5 µl of 5 mg/ml Lynronne-1, Lynronne-2 and Lynronne-3 and incubated at 37 °C for different time points (0, 1, 3, and 24 h). An aliquot from each reaction mixture at 0 h was prepared to allow matrix-assisted laser desorption/ionization time-of-flight (MALDI-TOF) mass spectrometric verification of the synthetic peptides prior to incubation. Trypsin action buffer (5 µl) and peptides without trypsin was used as negative control. After the various incubation times, the reaction mixtures were acidified by addition of an equal volume (50 µl) of 10% (v/v) trifluroacetic acid (TFA) to stop further enzyme activity. Lynronne-1, Lynronne-2 and Lynronne-3 degradation products were evaporated to dryness and reconstituted in acetonitrile/water/TFA (40/59.5/0.5%, v/v/v). Samples (1 µl) were carefully placed onto a stainless steel (MALDI) target, covered with 1 µl of matrix (53 mM a-cyano-4-hydroxycinnamic acid in acetonitrile/water/TFA, 70/29.97/0.03%, v/v/v) solution before analysis by mass spectrometry.

Sal. typhimurium = test: SPOT peptide library screen (resazurin fluorescence); type: cell-based, Salmonella enterica serovar Typhimurium; set-up: unit not given here; conditions: 75% reduction of fluorescence vs untreated controls; active IC75≤0.25, semi-active 0.25<IC75≤0.50, inactive IC75>0.5
Description: (§2) The peptides in the created peptide library were synthesized based on the SPOT technique and pure peptides (≥95% purity) were synthesized on resin using solid phase Fmoc peptide chemistry.[16] The 135 peptides in the peptide library were screened for antimicrobial activity using both luminescent (Pseudomonas aeruginosa strain H1001)[34] and non-luminescent (epidemic methicillin resistant S. aureus EMRSA-15, Sal. typhimurium and E. coli K12) bacterial strains. Activity against non-luminescent bacteria strains was assessed by fluorescence readings (excitation/emission spectra of 560/590 nm) after the addition of resazurin dye (100 µm final concentration). The results from the screen were analysed using the MATLAB extension Gait-CAD as previously described.[35] Concentration values with a 75% reduction of luminescence or fluorescence (IC75) in relation to untreated controls were computed.

E. coli K12 = test: as above; type: cell-based, Escherichia coli; set-up: unit not given here; conditions: 75% reduction of fluorescence vs untreated controls; active IC75≤0.25, semi-active 0.25<IC75≤0.50, inactive IC75>0.5
Description: as §2

[2] = test system: human and sheep erythrocytes
Protocol: The haemolytic activity of peptides was determined by measuring haemoglobin leakage from human and sheep erythrocytes (Divbioscience, NL) after 1 h incubation at OD450nm. Cetyltrimethylammonium bromide (CTAB), a non-specific detergent was also included as a positive control. Triton-X 100 (0.1% v/v) was also used as an indicator of 100% haemolysis while PBS treatment represented auto-haemolysis.

[3] = Peptide-lipid interaction with pure lipids, lipid monolayer; type: binding; conditions: peptide 1 µg/ml; for Interaction with pure lipids: POPG, cardiolipin, LTA, POPE above POPC, initial surface pressure 30 ± 0.5 mN/m
Protocol: Membrane permeabilsation was evaluated using propidium iodide assay as previously explained,[43] with CTAB as positive control. Peptide–lipid interaction was measured using reconstituted lipid monolayer.[44] Total lipid extract from overnight liquid cultures of MRSA USA300 was obtained by Folch extraction, resuspended in chloroform and stored at −20 °C under nitrogen conditions. Pure bacterial and eukaryotic lipids, POPG, cardiolipin, LTA, POPE and POPC (Avanti Polar Lipid USA) were reconstituted in chloroform at 1 mg/ml and stored at −20 °C under nitrogen. Using a 50 µl Hamilton’s syringe, total MRSA lipid extract or pure lipids were spread at the surface of PBS creating a lipid monolayer at the air-water interface until an initial surface pressure of 30 ± 0.5 mN/m was reached. This corresponds to a lipid packing density theoretically equivalent to that of the outer leaflet of the cell membrane.[45] After 5–10 min of incubation allowing evaporation of the solvent and stabilization of the initial surface pressure, peptides were injected into the PBS (pH 7.4, volume 800 µl) sub-phase using a 10 µl Hamilton syringe. The variation of the surface pressure caused by peptide injection was then continuously monitored using a fully automated microtensiometer (µTROUGH SX, Kibron Inc., Helsinki, Finland) until reaching equilibrium (maximal surface pressure increase usually obtained after 15–25 min). Critical pressure of insertion of each peptide in the different lipids was also determined by changing the initial pressure of lipid monolayer (from 10 and 30 mN/m) and measuring the variation of pressure caused by the injection of peptide (at 1 µg/ml final concentration). All experiments were carried out in a controlled atmosphere at 20 °C ± 1 °C and data were analyzed using the Filmware 2.5 program (Kibron Inc., Helsinki, Finland). Variation of surface pressure was plotted as a function of initial surface pressure and critical pressure of insertion was calculated as the theoretical value of initial pressure of lipid monolayer not permissive to peptide insertion, i.e., a variation of pressure equal to 0 mN/m. The accuracy of the system under our experimental conditions was determined to be ± […] for surface pressure measurements.

MRSA USA300 cells = test: Transmission electron microscopy of treated cells; type: cell-based, Staphylococcus aureus; conditions: 3× MIC for 1 h
Description: Effects of AMPs on bacterial cell morphology was investigated using transmission electron microscopy as described by Huws et al.[49] […] Cells were post-fixed with 1% osmium tetroxide (w/v), stained with 2% (w/v) uranyl acetate and Reynold’s lead citrate and observed using a JEOL JEM1010 transmission electron microscope (JEOL Ltd, Tokyo, Japan) at 80 kV.

MRSA ATCC 33591 = test: Anti-biofilm activity, 96-well crystal violet model; type: cell-based, Staphylococcus aureus; conditions: 0.25× MIC (data not shown)
Protocol: The effectiveness of Lynronne-1, Lynronne-2, and Lynronne-3 to prevent (a) biofilm attachment and (b) disrupt established biofilms was measured using a 96-well biofilm model.[50] […] The biofilms were washed in PBS to remove planktonic cells, fixed with methanol, stained with 0.5% (w/v) crystal violet and re-solubilized with 33% (v/v) acetic acid. The optical density of biofilms was measured at 570 nm.

Row | Substance | Insertion ability into MRSA lipid extract monolayer [1] | MIC (K. pneumoniae; strain ATCC 700603, SHV-18) | MIC (K. pneumoniae; strain NCTC 13442, OXA-48) | MIC (A. baumanii) | remaining at 2 h (in vitro) | remaining at 6 h (in vitro) | IC75 values indicating activity classes, Sal. typhimurium (Sal. typhimurium) | IC75 values indicating activity classes, E. coli (E. coli K12) | Haemolytic activity against red blood cells [2] | Interaction with pure lipids [3] | MIC (K. pneumoniae; strain Q14-0095, KPC) | MIC (A. baumanii; strain 1560739339, OXA-23, cation adjusted MHB, 18–24 h) | Changes in cell morphology (TEM) (MRSA USA300 cells) | Biofilm attachment (MRSA ATCC 33591) | Affinity for lipids by critical pressure of insertion ([3]; initial pressure varied 10 to 30 mN/m)
1 | LPRRNRWSKIWKKVVTVFS-NH2 [Lynronne-1] | higher insertion ability | 16 µg/mL | 16 µg/mL | 4 µg/mL | 48% | 15% | 0.24 | 0.06 | little haemolytic activity | preferentially interact with lipids specific to bacteria | – | – | – | – | –
2 | NRFTARFRRTPWRLCLQFRQ-NH2 [Lynronne-3] | higher insertion ability | 32 µg/mL | 32 µg/mL | – | ≥ 88% | 34% | 0.41 | 0.16 | little haemolytic activity | preferentially interact with lipids specific to bacteria | 32 µg/mL | 32 µg/mL | – | – | –
3 | HLRRINKLLTRIGLYRHAFG-NH2 [Lynronne-2] | – | – | – | – | ≥ 60% | 42% | 0.09 | 0.09 | little haemolytic activity | preferentially interact with lipids specific to bacteria | – | – | very little morphology changes | effective | highest affinity for LTA
